Reference: patent publication US20200384003A1, “TRITERPENOID-CONTAINING PHARMACEUTICAL COMPOSITION AND USE THEREOF” (SHANGHAI LANMU CHEMICALS CO., LTD., priority 2017, published 2020)

Molecular target: T1, mutated lens protein (αB-crystallin R120G) (Homo sapiens, UniProt P02511, R120G)
T1 construct: expressed in transfected cells; host or cells: HeLa
T1 sequence (P02511 1-175 R120G): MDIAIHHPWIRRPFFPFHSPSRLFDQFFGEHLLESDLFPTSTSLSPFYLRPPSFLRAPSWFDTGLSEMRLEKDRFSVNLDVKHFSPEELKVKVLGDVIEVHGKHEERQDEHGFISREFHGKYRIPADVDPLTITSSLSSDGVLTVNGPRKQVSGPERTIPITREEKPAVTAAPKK
Test: Intracellular mutated lens protein aggregation inhibition experiment in transfected HeLa cells (Example 21)
Assay type: cell-based
Details: 10 μM, treated 3.5 hours, then 6.5 h normal medium, fewer + = better
Method: In this example, apart of the specific compounds obtained in Example 19 and Example 20 were selected for intracellular mutated lens protein (αB-crystallin R120G) aggregation inhibition experiment (experimental method was described in Chinese patent CN201580057679). The aggregation inhibition activities of compound I and compound II in the present invention on lens protein mutants were evaluated to screen a compound which was effective in treating related disease such as cataract.
The tumor cell line HeLa was selected as a host cell transfected with the mutant lens protein (αB-crystallin […]) expression plasmid, the medium was DMEM with […], and the culture conditions were 37° C., saturated humidity and 5% carbon dioxide cell incubator. Mycoplasma was negative. The transfection process is that the appropriate number of HeLa cells were inoculated on the pre-coated slides. When fully adherent cells grew to about 75% cell density, the expression vector was transfected with liposome. After 4 hours of transfection, the medium was changed to normal medium. Then the HeLa cells were cultured in the cell incubator for 13 hours to induce the expression of exogenous mutant lens protein. After changing the medium, the replaced new medium contained various compounds of the formula I and formula II of the present invention to be tested (DMSO was used as solvent in all mother fluid), wherein the final concentration of each compound was 10 μM, the negative control was 1.5% DMSO solvent, and the positive control was lanosterol (10 μM). The HeLa cells were treated with the medium containing the test compound, 1.5% DMSO solvent and lanosterol for 3.5 hours, respectively, and the normal fresh medium containing no DMSO, test compound or lanosterol was exchanged and the cells were cultured for another 6.5 h, then Anti-p62 antibody and DAPI were used for routine cellular immunofluorescence detection. The field of vision of three positions per slide was randomly selected, the ratio of cells containing aggregated crystalline proteins (lens protein aggregates) was calculated, and the effect of each test compound on intracellular aggregation of mutant lens proteins was finally determined, the results were shown in Table 19.

SMILES	Inhibitory effect (percentage of cells containing aggregated proteins)
CC(C)=CCCC(C=O)[C@H]1CC[C@@]2(C)C3=C(CC[C@]12C)[C@@]1(C)CC[C@H](O)C(C)(C)C1CC3 (stereo partly shown) [Compound 2″]	++ (>30% and <45% of the cells in the field of vision contained protein aggregates)
C[C@H](C(O)/C=C/C(C)(C)O)[C@H]1CC[C@@]2(C)C3=C(CC[C@]12C)[C@@]1(C)CC[C@H](O)C(C)(C)C1CC3 (stereo partly shown) [Compound 4″]	+ (<30% of the cells in the field of vision contained protein aggregates)
C[C@H](C(O)C/C=N/O)[C@H]1CC[C@@]2(C)C3=C(CC[C@]12C)[C@@]1(C)CC[C@H](O)C(C)(C)C1CC3 (stereo partly shown) [Compound 5]	+ (<30% of the cells in the field of vision contained protein aggregates)
CC(C)=CCC[C@H](C=O)[C@H]1CC[C@@]2(C)C3=C(CC[C@]12C)[C@@]1(C)CCC(=O)C(C)(C)C1CC3 (stereo partly shown) [Compound 5″]	++ (>30% and <45% of the cells in the field of vision contained protein aggregates)
CC(=O)[C@@H](C)[C@H]1CC[C@@]2(C)C3=C(CC[C@]12C)[C@@]1(C)CC[C@H](O)C(C)(C)C1CC3 (stereo partly shown) [Compound 6″]	++ (>30% and <45% of the cells in the field of vision contained protein aggregates)
C=C(C)C(=O)CC[C@@H](C(=O)O)[C@H]1CC[C@@]2(C)C3=C(CC[C@]12C)[C@@]1(C)CC[C@H](O)C(C)(C)C1CC3 (stereo partly shown) [Compound 7″]	++ (>30% and <45% of the cells in the field of vision contained protein aggregates)
COC(C)(C)C(O)CC(O)[C@@H](C)[C@H]1CC[C@@]2(C)C3=C(CC[C@]12C)[C@@]1(C)CC[C@H](O)C(C)(C)C1CC3 (stereo partly shown) [Compound 8″]	++ (>30% and <45% of the cells in the field of vision contained protein aggregates)
CO[C@H]1CC[C@]2(C)C3=C(CCC2C1(C)C)[C@]1(C)CC[C@H]([C@H](C)C(O)CCC(C)(C)OC)[C@@]1(C)CC3 (stereo partly shown) [Compound 9]	++ (>30% and <45% of the cells in the field of vision contained protein aggregates)
CC(=O)O[C@H]1CC[C@]2(C)C3=C(CCC2C1(C)C)[C@]1(C)CC[C@H]([C@H](C)C(O)CC2OC2(C)C)[C@@]1(C)CC3 (stereo partly shown) [Compound 10]	+ (<30% of the cells in the field of vision contained protein aggregates)
C[C@H](C(O)CC(Br)C(C)(C)O)[C@H]1CC[C@@]2(C)C3=C(CC[C@]12C)[C@@]1(C)CC[C@H](O)C(C)(C)C1CC3 (stereo partly shown) [Compound 13]	++ (>30% and <45% of the cells in the field of vision contained protein aggregates)
C[C@H](C(O)CCC(C)(C)O)[C@H]1CC[C@@]2(C)C3=C(CC[C@]12C)[C@@]1(C)CC[C@H](O)C(C)(C)C1CC3 (stereo partly shown) [Compound 15]	+ (<30% of the cells in the field of vision contained protein aggregates)
CC(C)(O)CCC[C@@H](C(=O)O)[C@H]1CC[C@@]2(C)C3=C(CC[C@]12C)[C@@]1(C)CC[C@H](O)C(C)(C)C1CC3 (stereo partly shown) [Compound 15′]	+ (<30% of the cells in the field of vision contained protein aggregates)
C[C@H](C(O)CC(O)C(C)(C)O)[C@H]1CC[C@@]2(C)C3=C(CC[C@]12C)[C@@]1(C)CC[C@H](O)C(C)(C)C1CC3 (stereo partly shown) [Compound 17]	++ (>30% and <45% of the cells in the field of vision contained protein aggregates)
C=C(C)C(=O)CC(O)C(C)[C@H]1CC[C@@]2(C)C3=C(CC[C@]12C)[C@@]1(C)CC[C@H](O)C(C)(C)C1CC3 (stereo partly shown) [Compound 17″]	++ (>30% and <45% of the cells in the field of vision contained protein aggregates)
C[C@H](C(O)CC(=O)C(C)(C)O)[C@H]1CC[C@@]2(C)C3=C(CC[C@]12C)[C@@]1(C)CC[C@H](O)C(C)(C)C1CC3 (stereo partly shown) [Compound 20]	++ (>30% and <45% of the cells in the field of vision contained protein aggregates)
CC(C)(O)C(=O)CC[C@@H](C(=O)O)[C@H]1CC[C@@]2(C)C3=C(CC[C@]12C)[C@@]1(C)CC[C@H](O)C(C)(C)C1CC3 (stereo partly shown) [Compound 20′]	++ (>30% and <45% of the cells in the field of vision contained protein aggregates)
C[C@H](C(O)CCC(C)(C)O)[C@H]1CC[C@@]2(C)C3=CCC4C(C)(C)[C@@H](O)CC[C@]4(C)C3=CC[C@]12C (stereo partly shown) [Compound 21]	+ (<30% of the cells in the field of vision contained protein aggregates)
CC(C)(O)CCC[C@@H](C(=O)O)[C@H]1CC[C@@]2(C)C3=CCC4C(C)(C)[C@@H](O)CC[C@]4(C)C3=CC[C@]12C (stereo partly shown) [Compound 21′]	++ (>30% and <45% of the cells in the field of vision contained protein aggregates)
C[C@H](C(O)CCC(C)(C)O)[C@H]1CC[C@@]2(C)C3=C(CC[C@]12C)[C@@]1(C)C[C@@H](F)[C@H](O)C(C)(C)C1CC3 (stereo partly shown) [Compound 23]	+ (<30% of the cells in the field of vision contained protein aggregates)
C[C@H](C(O)CCC(C)(C)O)[C@H]1CC[C@@]2(C)C3=C(CC[C@]12C)[C@@]1(C)C[C@@H](F)[C@@H](O)C(C)(C)C1CC3 (stereo partly shown) [Compound 24]	+ (<30% of the cells in the field of vision contained protein aggregates)
C[C@H](C(O)CCC(C)(C)O)[C@H]1CC[C@@]2(C)C3=C(CC[C@]12C)[C@@]1(C)C[C@@H](O)[C@H](O)C(C)(C)C1CC3 (stereo partly shown) [Compound 25]	+ (<30% of the cells in the field of vision contained protein aggregates)
C/C(=C\CC(O)[C@@H](C)[C@H]1CC[C@@]2(C)C3=C(CC[C@]12C)[C@@]1(C)CC[C@H](O)C(C)(C)C1CC3)C(=O)O (stereo partly shown) [Compound 27]	+ (<30% of the cells in the field of vision contained protein aggregates)
C/C(=C\CC(O)[C@@H](C)[C@H]1CC[C@@]2(C)C3=C(CC[C@]12C)[C@@]1(C)CC[C@H](O)C(C)(C)C1CC3)CO (stereo partly shown) [Compound 32]	+ (<30% of the cells in the field of vision contained protein aggregates)
C[C@H](C(O)C/C=C/C(=O)O)[C@H]1CC[C@@]2(C)C3=C(CC[C@]12C)[C@@]1(C)CC[C@H](O)C(C)(C)C1CC3 (stereo partly shown) [Compound 34]	+ (<30% of the cells in the field of vision contained protein aggregates)
C[C@H](C(O)C/C=C/C(=O)O)[C@H]1CC[C@@]2(C)C3=C(CC[C@]12C)[C@@]1(C)C[C@@H](F)[C@H](O)C(C)(C)C1CC3 (stereo partly shown) [Compound 42]	+ (<30% of the cells in the field of vision contained protein aggregates)
